Test results published in patent US20220175917A1, “COMBINATION OF IAP INHIBITOR AND IMMUNE CHECKPOINT INHIBITOR” (CHIA TAI TIANQING PHARMACEUTICAL GROUP CO., LTD., priority 2019, published 2022).

How the values were obtained:
[1] = tested on: mouse triple-negative breast cancer EMT6 cell line; assay: In-vivo drug efficacy study 1: EMT6 transplanted BALB/c mouse model, tumor volume; details: for Tumor volume Day 0: Day 0 (start of dosing)
Description: To evaluate the tumor immunotherapeutic effect of test drugs in the mouse triple-negative breast cancer EMT6 cell line (EMT6 is from ATCC, cell No.: CRL-2755) transplanted BALB/c mouse model.
BALB/c mice, female, 6-7 weeks old, weighing about 19.1-22.6 g, were housed in separated ventilated boxes with constant temperature and humidity. The feeding room was under the following conditions: temperature: 20-26° C., humidity: 40-70%, ventilation: 10-20 times/h, and light/dark cycle: 12 h/12 h. The Co-60 radiation-sterilized complete pellet feed for mice was supplied continuously and can be taken freely without limitation, and the drinking tap water (used after autoclaving) was supplied continuously by the water bottle and can be taken freely. A total of 144 mice purchased from Shanghai Lingchang Biotechnology Co., Ltd. were used for the study. The BALB/c mice were inoculated with EMT6 cells subcutaneously to establish murine breast cancer models with subcutaneously-transplanted tumors. The mice were administered when the mean tumor volume reached about 97.3 mm^3. The test compounds were administered orally once every 3 days at a dose of 50 mg/kg. PD1 mAb (from BioXcell, cat No.: BP0146, batch No.: 695318A1B, clone No.: RMP1-14) was administered intraperitoneally once every 3 days at a dose of 10 mg/kg. Tumor volume was measured every 3 days with a two-dimensional caliper, and the volume was measured in mm^3 and calculated according to the following formula: V=0.5 a×b^2, where a and b are the long and short diameters, respectively, of the tumor. Anti-tumor efficacy was determined by dividing the mean tumor increase volume of compound-treated animals by the mean tumor increase volume of untreated animals.

[2] = tested on: mouse colon cancer MC38 cell line; assay: In vivo efficacy study 2: MC38 transplanted BALB/c mouse model, tumor volume; details: combination Example 2 50 mg/kg orally twice a week + Anti-PD1 10 mg/kg intravenously once a week, MC38, BALB/c mice
Text: To evaluate the tumor immunotherapeutic effect of test drugs in the mouse colon cancer MC38 cell line (from Obio Technology (Shanghai) Co., Ltd.) transplanted BALB/c mouse model.
BALB/c mice, female, 6-7 weeks old, weighing about 18-22 g, were kept in a special pathogen-free environment and in separated ventilated cages (3-5 mice per cage). All cages, bedding and water were disinfected prior to use. All animals had free access to standard certified commercial laboratory diets. A total of 48 mice purchased from Shanghai Slac Laboratory Animal Co., Ltd. were enrolled. Each mouse was implanted subcutaneously in the right flank with mouse colon cancer MC38 cells (2×10^5 cells in 0.1 mL of phosphate buffered saline) for tumor growth. The mice were administered when the mean tumor volume reached about 70 mm^3. Test compounds were administered orally twice a week (morning and afternoon) at a dose of 50 mg/kg; PD-1 antibody (from BioXcell, cat. No.: BP0146, batch No.: 640517M2B) was administered intravenously once a week at a dose of 10 mg/kg. Tumor volume was measured […] with a two-dimensional caliper, and the volume was measured in mm^3 and calculated according to the following formula: V=0.5 a×b^2, where a and b are the long and short diameters, respectively, of the tumor. Anti-tumor efficacy was determined by dividing the mean tumor increase volume of compound-treated animals by the mean tumor increase volume of untreated animals.

[3] = Example 2 alone, 50 mg/kg orally once every 3 days, EMT6 subcutaneous, BALB/c mice
[4] = combination Example 2 50 mg/kg orally + Anti-PD1 10 mg/kg intraperitoneally, each once every 3 days, EMT6, BALB/c mice

## CN[C@@H](C)C(=O)N[C@H](C(=O)N1CCC[C@H]1Cn1cc(C(C)=O)c2cc(Cl)ccc21)C1CCCCC1 [Example 2]
[1]; [3]
  Tumor volume Day 0: 97.3 mm^3
  Tumor volume Day 7: 355.5 mm^3
  Tumor volume Day 14: 1097.7 mm^3
  Tumor volume Day 25: 2225.8 mm^3
[1]; [4]
  Tumor volume Day 0: 97.3 mm^3
  Tumor volume Day 7: 332.4 mm^3
  Tumor volume Day 14: 174.2 mm^3
  Tumor volume Day 25: 31.5 mm^3
[2]; Day 0 (start of dosing)
  Tumor volume Day 0: 51.6 mm^3
[2]; Day 5
  Tumor volume Day 5: 140.7 mm^3
[2]; Day 12
  Tumor volume Day 12: 215.5 mm^3
[2]; Day 20
  Tumor volume Day 20: 427.1 mm^3
